Data as given in US20240307577A1, “CHLORINATED 4'-ALKYLUMBELLIFERYL ALPHA-D-GLUCOPYRANOSIDE AND METHOD OF ASSESSING EFFICACY OF A STERILIZATION PROCESS INCLUDING THE SAME” (3M INNOVATIVE PROPERTIES COMPANY, priority 2021, published 2024).

System: Geobacillus stearothermophilus spores (ATCC 7953)
Assay: Fluorescence of enzyme substrates in culture media with Geobacillus stearothermophilus spores (96-well plate, 60° C.)
Type: cell-based
Conditions: for MEASURED FLUORESCENCE, RFU 10 Sec / MEASURED FLUORESCENCE, RFU +5 min / MEASURED FLUORESCENCE, RFU +10 min / MEASURED FLUORESCENCE, RFU +30 min / MEASURED FLUORESCENCE, RFU 10 sec: substrate 0.3 mg/mL, 60° C.; for fluorescent signal in the presence of Geobacillus stearothermophilus spores compared with MUG and 8F-MUG: high and low spore levels, two low pH levels, MUG also at its optimal pH of 8.0
Procedure: Culture media was prepared by dissolving by dissolving 2 g/L phytone peptone (BD BBL 211906) and 0.2 g/L L-alanine (Sigma 05129) in deionized water. 1N NaOH or 0.1 N HCl were used to adjust pH, and media were brought to volume and filter sterilizing using a 0.22 micron polyethersulfone (PES) filter. Stock solutions (25 mg/ml) of 6′-chloro-4′-methylumbelliferyl-a-D-glucopyranoside, 8′-chloro-4′-methylumbelliferyl-a-D-glucopyranoside, 8′-fluoro-4′-methylumbelliferyl-a-D-glucopyranoside, and 4-methylumbelliferyl-a-D-glucopyranoside were prepared in DMSO. The fluorogenic a-glucosidase substrates were added to culture media at a final concentration of 0.3 mg/ml.
(§1) Culture media (pH 6.7) containing 6′-chloro-4′-methylumbelliferyl α-D-glucopyranoside (0.3 mg/mL) was each added to eight wells (100 microliters per well) of a black 96-well microtiter plate with (NUNC #165301, Thermo Fisher Scientific, Waltham, Massachusetts). A 5-microliter aqueous suspension containing 5×10^3 Geobacillus stearothermophilus spores (ATCC 7953) was added to 4 of the wells for each medium in the microtiter plate. […] The top of the plate was covered with an optically clear sealing film (product #4311971, Applied Biosystems Corporation, Foster City, California). The plate was warmed at 60° C. and shaken in a linear direction. Fluorescence readings (360 nm excitation/450 nm emission at 50% gain) were taken from the bottom of the plate. A reading was taken at an initial time point of 10 seconds and then at +1-minute intervals thereafter. A Synergy Neo2 fluorescence plate reader (BioTek Company, Winooski, Vermont) was used. In Table 1, the mean fluorescence values detected (RFU) at times of 10 seconds, +5 minutes, +10 minutes, and +30 minutes are reported. The mean fluorescence values detected for the control wells were 511 RFU at 10 seconds; 426 RFU at +5 minutes: 373 RFU at +10 minutes, and 310 RFU at +30 minutes.
as §1, with “(pH 7.0)” for “(pH 6.7)”, “Table 2,” for “Table 1,”, “were 512” for “were 511”, “seconds; 417” for “seconds; 426”, “+5 minutes; 363” for “+5 minutes: 373”, “and 308” for “and 310”
Culture media (pH 6.7) containing 6′-chloro-4′-methylumbelliferyl α-D-glucopyranoside (0.3 mg/mL) was each added to eight wells (100 microliters per well) of a black 96-well microtiter plate with (NUNC #165301, Thermo Fisher Scientific, Waltham, Massachusetts). A 5-microliter aqueous suspension containing 5×10^5 Geobacillus stearothermophilus spores (ATCC 7953) was added to 4 of the wells for each medium in the microtiter plate. […] The top of the plate was covered with an optically clear sealing film (product #4311971, Applied Biosystems Corporation, Foster City, California). The plate was warmed at 60° C. and shaken in a linear direction. Fluorescence readings (360 nm excitation/450 nm emission at 50% gain) were taken from the bottom of the plate. […]

[1] = 5 × 10^3 spores, culture media pH 6.7, 360 nm ex/450 nm em
[2] = 5 × 10^3 spores, culture media pH 6.7
[3] = 5 × 10^3 spores, culture media pH 7.0
[4] = 5 × 10^5 spores, culture media pH 6.7
[5] = 5 × 10^5 spores, culture media pH 7.0
[6] = 5 × 10^3 spores, culture media pH 8.0
[7] = 5 × 10^5 spores, culture media pH 8.0

SMILES	MEASURED FLUORESCENCE, RFU 10 Sec [1] [RFU]	MEASURED FLUORESCENCE, RFU +5 min [2] [RFU]	MEASURED FLUORESCENCE, RFU +10 min [2] [RFU]	MEASURED FLUORESCENCE, RFU +30 min [2] [RFU]	MEASURED FLUORESCENCE, RFU 10 Sec [3] [RFU]	MEASURED FLUORESCENCE, RFU +5 min [3] [RFU]	MEASURED FLUORESCENCE, RFU +10 min [3] [RFU]	MEASURED FLUORESCENCE, RFU +30 min [3] [RFU]	MEASURED FLUORESCENCE, RFU 10 sec [4] [RFU]	MEASURED FLUORESCENCE, RFU +5 min [4] [RFU]	MEASURED FLUORESCENCE, RFU +10 min [4] [RFU]	MEASURED FLUORESCENCE, RFU +30 min [4] [RFU]	MEASURED FLUORESCENCE, RFU 10 sec [5] [RFU]	MEASURED FLUORESCENCE, RFU +5 min [5] [RFU]	MEASURED FLUORESCENCE, RFU +10 min [5] [RFU]	MEASURED FLUORESCENCE, RFU +30 min [5] [RFU]	fluorescent signal in the presence of Geobacillus stearothermophilus spores compared with MUG and 8F-MUG	other results
Cc1cc(=O)oc2cc(O[C@H]3O[C@H](CO)[C@@H](O)[C@H](O)[C@H]3O)c(Cl)cc12 [Example 1, 6′-chloro-4′-methylumbelliferyl α-D-glucopyranoside]	1013	2251	4622	12582	1226	2377	4424	11941	17227	53202	79375	98077	18386	53621	81061	99019	higher fluorescent signal	
Cc1cc(=O)oc2c(F)c(O[C@H]3O[C@H](CO)[C@@H](O)[C@H](O)[C@H]3O)ccc12 [Example 8F-MUG, 8′-fluoro-4′-methylumbelliferyl α-D-glucopyranoside, reference compound]	693	1422	2869	8410	777	1573	3153	9038	8975	31069	50175	67041	8171	34178	56663	70392		
Cc1cc(=O)oc2c(Cl)c(O[C@H]3O[C@H](CO)[C@@H](O)[C@H](O)[C@H]3O)ccc12 [Example 2, 8′-chloro-4′-methylumbelliferyl α-D-glucopyranoside]	1164	3013	6278	15253	1500	3370	6612	16521	21302	56949	73987	81560	21883	58454	77112	83010	higher fluorescent signal	
Cc1cc(=O)oc2cc(O[C@H]3O[C@H](CO)[C@@H](O)[C@H](O)[C@H]3O)ccc12 [MUG, 4′-methylumbelliferyl-α-D-glucopyranoside, reference compound]	430	403	464	991					895	3260	8049	29586						MEASURED FLUORESCENCE, RFU 10 Sec [6]: 540 RFU; MEASURED FLUORESCENCE, RFU +5 min [6]: 658 RFU; MEASURED FLUORESCENCE, RFU +10 min [6]: 993 RFU; MEASURED FLUORESCENCE, RFU +30 min [6]: 2891 RFU; MEASURED FLUORESCENCE, RFU 10 sec [7]: 2644 RFU; MEASURED FLUORESCENCE, RFU +5 min [7]: 12059 RFU; MEASURED FLUORESCENCE, RFU +10 min [7]: 29277 RFU; MEASURED FLUORESCENCE, RFU +30 min [7]: 75861 RFU
